Results as given in the supplement of paper PMC10307832.

How the values were obtained:
Test in all cases: relative viability (nuclei count vs DMSO), 5 days (fraction); higher = more cells survive
Vemurafenib + Tozasertib = compound: CCCS(=O)(=O)Nc1ccc(F)c(C(=O)c2c[nH]c3ncc(-c4ccc(Cl)cc4)cc23)c1F [Vemurafenib] + Cc1cc(Nc2cc(N3CCN(C)CC3)nc(Sc3ccc(NC(=O)C4CC4)cc3)n2)n[nH]1 [Tozasertib] (partner 0.1 µM)
Outline: (§1)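 Relative viability is defined as nuclei in treated wells over nuclei in vehicle wells. Duplicate plates were run and medians reported. Lung cancer cell lines in 1536-well plates were dosed by pin tool one day after seeding, with one drug or with a fixed anchor-drug dose plus five library-drug doses (not always all listed) in √10 steps, and nuclei were counted after 5 days.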

Vemurafenib + Linsitinib = compound: CCCS(=O)(=O)Nc1ccc(F)c(C(=O)c2c[nH]c3ncc(-c4ccc(Cl)cc4)cc23)c1F [Vemurafenib] + C[C@]1(O)C[C@@H](c2nc(-c3ccc4ccc(-c5ccccc5)nc4c3)c3c(N)nccn32)C1 [Linsitinib] (partner 1 µM)
Outline: as §1

OSI-027 + Linsitinib = compound: COc1cccc2cc(-c3nc([C@H]4CC[C@H](C(=O)O)CC4)n4ncnc(N)c34)[nH]c12 [OSI-027] + C[C@]1(O)C[C@@H](c2nc(-c3ccc4ccc(-c5ccccc5)nc4c3)c3c(N)nccn32)C1 [Linsitinib] (partner 1 µM)
Outline: as §1

Alpelisib + Bortezomib = compound: Cc1nc(NC(=O)N2CCC[C@H]2C(N)=O)sc1-c1ccnc(C(C)(C)C(F)(F)F)c1 [Alpelisib] + CC(C)C[C@H](NC(=O)[C@H](Cc1ccccc1)NC(=O)c1cnccn1)B(O)O [Bortezomib] (partner 0.002 µM)
Outline: as §1

NCI-H23
relative viability (Vemurafenib + Tozasertib; first compound 0.03162 µM): 0.309
relative viability (Vemurafenib + Tozasertib; first compound 0.1 µM): 0.352
relative viability (Vemurafenib + Tozasertib; first compound 0.3162 µM): 0.345
relative viability (Vemurafenib + Tozasertib; first compound 1 µM): 0.278
relative viability (Vemurafenib + Linsitinib; first compound 0.03162 µM): 0.621
relative viability (Vemurafenib + Linsitinib; first compound 0.1 µM): 0.605
relative viability (Vemurafenib + Linsitinib; first compound 0.3162 µM): 0.715
relative viability (Vemurafenib + Linsitinib; first compound 1 µM): 0.59
relative viability (OSI-027 + Linsitinib; first compound 0.01 µM): 0.517
relative viability (OSI-027 + Linsitinib; first compound 0.03162 µM): 0.549
relative viability (OSI-027 + Linsitinib; first compound 0.1 µM): 0.452
relative viability (OSI-027 + Linsitinib; first compound 0.3162 µM): 0.237
relative viability (OSI-027 + Linsitinib; first compound 1 µM): 0.212
relative viability (Alpelisib + Bortezomib; first compound 0.04 µM): 0.941
relative viability (Alpelisib + Bortezomib; first compound 0.1265 µM): 0.941
relative viability (Alpelisib + Bortezomib; first compound 0.4 µM): 0.773
relative viability (Alpelisib + Bortezomib; first compound 1.265 µM): 0.559
relative viability (Alpelisib + Bortezomib; first compound 4 µM): 0.766

NCI-H322M
relative viability (Vemurafenib + Tozasertib; first compound 0.03162 µM): 0.426
relative viability (Vemurafenib + Tozasertib; first compound 1 µM): 0.446
relative viability (Vemurafenib + Linsitinib; first compound 0.03162 µM): 0.851
relative viability (Vemurafenib + Linsitinib; first compound 0.3162 µM): 0.964
relative viability (Vemurafenib + Linsitinib; first compound 1 µM): 0.885
relative viability (OSI-027 + Linsitinib; first compound 0.01 µM): 0.805
relative viability (OSI-027 + Linsitinib; first compound 0.03162 µM): 0.778
relative viability (OSI-027 + Linsitinib; first compound 0.1 µM): 0.787
relative viability (OSI-027 + Linsitinib; first compound 0.3162 µM): 0.589
relative viability (OSI-027 + Linsitinib; first compound 1 µM): 0.868
relative viability (Alpelisib + Bortezomib; first compound 0.04 µM): 1.23
relative viability (Alpelisib + Bortezomib; first compound 0.1265 µM): 1.06
relative viability (Alpelisib + Bortezomib; first compound 0.4 µM): 1.1
relative viability (Alpelisib + Bortezomib; first compound 1.265 µM): 1.1
relative viability (Alpelisib + Bortezomib; first compound 4 µM): 0.857

NCI-H441
relative viability (Vemurafenib + Tozasertib; first compound 0.03162 µM): 0.708
relative viability (Vemurafenib + Tozasertib; first compound 0.1 µM): 0.561
relative viability (Vemurafenib + Tozasertib; first compound 0.3162 µM): 0.476
relative viability (Vemurafenib + Tozasertib; first compound 1 µM): 0.591
relative viability (Vemurafenib + Linsitinib; first compound 0.03162 µM): 0.555
relative viability (Vemurafenib + Linsitinib; first compound 0.1 µM): 0.527
relative viability (Vemurafenib + Linsitinib; first compound 0.3162 µM): 0.491
relative viability (Vemurafenib + Linsitinib; first compound 1 µM): 0.345
relative viability (OSI-027 + Linsitinib; first compound 0.01 µM): 0.643
relative viability (OSI-027 + Linsitinib; first compound 0.03162 µM): 0.452
relative viability (OSI-027 + Linsitinib; first compound 0.1 µM): 0.399
relative viability (OSI-027 + Linsitinib; first compound 0.3162 µM): 0.387
relative viability (OSI-027 + Linsitinib; first compound 1 µM): 0.206
relative viability (Alpelisib + Bortezomib; first compound 0.04 µM): 0.631
relative viability (Alpelisib + Bortezomib; first compound 0.1265 µM): 0.45
relative viability (Alpelisib + Bortezomib; first compound 0.4 µM): 0.531
relative viability (Alpelisib + Bortezomib; first compound 1.265 µM): 0.329
relative viability (Alpelisib + Bortezomib; first compound 4 µM): 0.385

NCI-H460
relative viability (Vemurafenib + Tozasertib; first compound 0.03162 µM): 0.389
relative viability (Vemurafenib + Tozasertib; first compound 0.1 µM): 0.28
relative viability (Vemurafenib + Tozasertib; first compound 1 µM): 0.156
relative viability (Vemurafenib + Linsitinib; first compound 0.03162 µM): 0.677
relative viability (Vemurafenib + Linsitinib; first compound 0.1 µM): 0.839
relative viability (Vemurafenib + Linsitinib; first compound 0.3162 µM): 0.879
relative viability (Vemurafenib + Linsitinib; first compound 1 µM): 0.777
relative viability (OSI-027 + Linsitinib; first compound 0.01 µM): 0.95
relative viability (OSI-027 + Linsitinib; first compound 0.03162 µM): 0.34
relative viability (OSI-027 + Linsitinib; first compound 0.1 µM): 0.627
relative viability (OSI-027 + Linsitinib; first compound 0.3162 µM): 0.186
relative viability (OSI-027 + Linsitinib; first compound 1 µM): 0.105
relative viability (Alpelisib + Bortezomib; first compound 0.04 µM): 1
relative viability (Alpelisib + Bortezomib; first compound 0.1265 µM): 0.939
relative viability (Alpelisib + Bortezomib; first compound 0.4 µM): 1.13
relative viability (Alpelisib + Bortezomib; first compound 1.265 µM): 0.646
relative viability (Alpelisib + Bortezomib; first compound 4 µM): 0.366

NCI-H520
relative viability (Vemurafenib + Tozasertib; first compound 0.03162 µM): 0.529
relative viability (Vemurafenib + Tozasertib; first compound 0.1 µM): 0.411
relative viability (Vemurafenib + Tozasertib; first compound 0.3162 µM): 0.435
relative viability (Vemurafenib + Tozasertib; first compound 1 µM): 0.415
relative viability (Vemurafenib + Linsitinib; first compound 0.03162 µM): 1.06
relative viability (Vemurafenib + Linsitinib; first compound 0.1 µM): 1.13
relative viability (Vemurafenib + Linsitinib; first compound 0.3162 µM): 1.02
relative viability (Vemurafenib + Linsitinib; first compound 1 µM): 0.956
relative viability (OSI-027 + Linsitinib; first compound 0.01 µM): 1.08
relative viability (OSI-027 + Linsitinib; first compound 0.03162 µM): 0.931
relative viability (OSI-027 + Linsitinib; first compound 0.1 µM): 0.888
relative viability (OSI-027 + Linsitinib; first compound 0.3162 µM): 0.614
relative viability (OSI-027 + Linsitinib; first compound 1 µM): 0.311
relative viability (Alpelisib + Bortezomib; first compound 0.04 µM): 0.59
relative viability (Alpelisib + Bortezomib; first compound 0.1265 µM): 0.687
relative viability (Alpelisib + Bortezomib; first compound 0.4 µM): 0.553
relative viability (Alpelisib + Bortezomib; first compound 1.265 µM): 0.623
relative viability (Alpelisib + Bortezomib; first compound 4 µM): 0.319

NCI-H596
relative viability (Vemurafenib + Tozasertib; first compound 0.03162 µM): 0.886
relative viability (Vemurafenib + Tozasertib; first compound 0.1 µM): 0.767
relative viability (Vemurafenib + Tozasertib; first compound 0.3162 µM): 0.813
relative viability (Vemurafenib + Tozasertib; first compound 1 µM): 0.904
relative viability (Vemurafenib + Linsitinib; first compound 0.03162 µM): 1.07
relative viability (Vemurafenib + Linsitinib; first compound 0.1 µM): 0.918
relative viability (Vemurafenib + Linsitinib; first compound 0.3162 µM): 1.12
relative viability (Vemurafenib + Linsitinib; first compound 1 µM): 1.06
relative viability (OSI-027 + Linsitinib; first compound 0.01 µM): 0.981
relative viability (OSI-027 + Linsitinib; first compound 0.03162 µM): 0.978
relative viability (OSI-027 + Linsitinib; first compound 0.1 µM): 1.03
relative viability (OSI-027 + Linsitinib; first compound 0.3162 µM): 0.779
relative viability (OSI-027 + Linsitinib; first compound 1 µM): 0.483
relative viability (Alpelisib + Bortezomib; first compound 0.04 µM): 1.17
relative viability (Alpelisib + Bortezomib; first compound 0.1265 µM): 0.801
relative viability (Alpelisib + Bortezomib; first compound 0.4 µM): 1.15
relative viability (Alpelisib + Bortezomib; first compound 1.265 µM): 0.666
relative viability (Alpelisib + Bortezomib; first compound 4 µM): 0.44

NCI-H647
relative viability (Vemurafenib + Tozasertib; first compound 0.03162 µM): 0.262
relative viability (Vemurafenib + Tozasertib; first compound 0.1 µM): 0.263
relative viability (Vemurafenib + Tozasertib; first compound 0.3162 µM): 0.271
relative viability (Vemurafenib + Tozasertib; first compound 1 µM): 0.248
relative viability (Vemurafenib + Linsitinib; first compound 0.03162 µM): 1.08
relative viability (Vemurafenib + Linsitinib; first compound 0.1 µM): 0.971
relative viability (Vemurafenib + Linsitinib; first compound 0.3162 µM): 1.03
relative viability (Vemurafenib + Linsitinib; first compound 1 µM): 1.14
relative viability (OSI-027 + Linsitinib; first compound 0.01 µM): 1.29
relative viability (OSI-027 + Linsitinib; first compound 0.03162 µM): 1.2
relative viability (OSI-027 + Linsitinib; first compound 0.1 µM): 0.944
relative viability (OSI-027 + Linsitinib; first compound 0.3162 µM): 0.855
relative viability (OSI-027 + Linsitinib; first compound 1 µM): 0.496
relative viability (Alpelisib + Bortezomib; first compound 0.04 µM): 0.75
relative viability (Alpelisib + Bortezomib; first compound 0.1265 µM): 1.1
relative viability (Alpelisib + Bortezomib; first compound 0.4 µM): 1.34
relative viability (Alpelisib + Bortezomib; first compound 1.265 µM): 0.944
relative viability (Alpelisib + Bortezomib; first compound 4 µM): 0.922

NCI-H650
relative viability (Vemurafenib + Tozasertib; first compound 0.03162 µM): 0.696
relative viability (Vemurafenib + Tozasertib; first compound 0.1 µM): 0.703
relative viability (Vemurafenib + Tozasertib; first compound 1 µM): 0.614
relative viability (Vemurafenib + Linsitinib; first compound 0.03162 µM): 0.709
relative viability (Vemurafenib + Linsitinib; first compound 0.1 µM): 0.83
relative viability (Vemurafenib + Linsitinib; first compound 0.3162 µM): 0.297
relative viability (Vemurafenib + Linsitinib; first compound 1 µM): 0.595
relative viability (OSI-027 + Linsitinib; first compound 0.01 µM): 0.701
relative viability (OSI-027 + Linsitinib; first compound 0.03162 µM): 0.892
relative viability (OSI-027 + Linsitinib; first compound 0.1 µM): 0.492
relative viability (OSI-027 + Linsitinib; first compound 0.3162 µM): 0.442
relative viability (OSI-027 + Linsitinib; first compound 1 µM): 0.334
relative viability (Alpelisib + Bortezomib; first compound 0.04 µM): 0.728
relative viability (Alpelisib + Bortezomib; first compound 0.1265 µM): 0.563
relative viability (Alpelisib + Bortezomib; first compound 0.4 µM): 0.881
relative viability (Alpelisib + Bortezomib; first compound 1.265 µM): 0.573
relative viability (Alpelisib + Bortezomib; first compound 4 µM): 0.58

NCI-H661
relative viability (Vemurafenib + Tozasertib; first compound 0.03162 µM): 0.325
relative viability (Vemurafenib + Tozasertib; first compound 0.1 µM): 0.334
relative viability (Vemurafenib + Tozasertib; first compound 0.3162 µM): 0.396
relative viability (Vemurafenib + Tozasertib; first compound 1 µM): 0.358
relative viability (Vemurafenib + Linsitinib; first compound 0.03162 µM): 0.573
relative viability (Vemurafenib + Linsitinib; first compound 0.1 µM): 0.516
relative viability (Vemurafenib + Linsitinib; first compound 0.3162 µM): 0.663
relative viability (Vemurafenib + Linsitinib; first compound 1 µM): 0.637
relative viability (OSI-027 + Linsitinib; first compound 0.01 µM): 0.511
relative viability (OSI-027 + Linsitinib; first compound 0.03162 µM): 0.334
relative viability (OSI-027 + Linsitinib; first compound 0.1 µM): 0.521
relative viability (OSI-027 + Linsitinib; first compound 0.3162 µM): 0.364
relative viability (OSI-027 + Linsitinib; first compound 1 µM): 0.269
relative viability (Alpelisib + Bortezomib; first compound 0.04 µM): 0.668
relative viability (Alpelisib + Bortezomib; first compound 0.1265 µM): 0.933
relative viability (Alpelisib + Bortezomib; first compound 0.4 µM): 0.833
relative viability (Alpelisib + Bortezomib; first compound 1.265 µM): 0.593
relative viability (Alpelisib + Bortezomib; first compound 4 µM): 0.651
